# ± gives the expanded uncertainty stated by the source.
# Assay: molar enthalpy of vaporization or sublimation
# Conditions: 298.15 K, Calvet microcalorimetry
molar enthalpy (Liquid) [kcal/mol],molar enthalpy (Crystal) [kcal/mol],Structure (SMILES)
12.5 ± 0.382,–,Oc1ccccc1F [2-fluorophenol]
14.4 ± 0.43,–,Oc1cccc(F)c1 [3-fluorophenol]
–,17.7 ± 0.669,Oc1ccc(F)cc1 [4-fluorophenol]

# Source: the NIST ThermoML archive (doi:10.1021/je9000872)
